Assay results from patent US11634452B2, “Compounds for treating neurodegenerative disorders” (ETHNODYNE, priority 2017, dated 2023).

Test system: primary rat dopaminergic neurons (TH positive neurons) injured with MPP+
Assay: Neuroprotective effect following exposure to MPP+
Format: cell-based
Method: This study investigated the neuroprotective effect of the Compound CR777 of example 1 on rat primary mesencephalic cultures following exposure to 1-methyl-4-phenyl pyridinium (MPP^+).
Rat dopaminergic neurons were cultured as described by Visanji et al., 2008 FASEB J. 2008; 22(7):2488-97. Briefly, the midbrains obtained from 15-day old rat embryos (Janvier Labs, France) were dissected under a microscope. The embryonic midbrains were removed and placed in ice-cold medium of Leibovitz (L15, Batch 4290114, Pan Biotech, Germany) containing 2% of Penicillin-Streptomycin (PS, Batch 1451013, Pan Biotech) and 1% of bovine serum albumin (BSA, Batch K030913, Pan Biotech). The ventral portion of the mesencephalic flexure, a region of the developing brain rich in dopaminergic neurons, was used for the cell preparations.
The midbrains were dissociated by trypsinisation for 20 min at 37° C. […] The cells were seeded in supplemented neurobasal medium at a density of 40 000 cells/well in 96 well-plates pre-coated with poly-L-lysine (Batch 3102256, Corning Biocoat) and maintained in a humidified incubator at 37° C. in 5% CO2/95% air atmosphere. Half of the medium was changed every 2 days with fresh medium.
On day 6 of culture, the medium was removed and fresh medium was added, without or with MPP+ at 4 μM diluted in control medium and let for 48 h. […]
The following conditions were assessed: (6 wells per condition) • Control (vehicle) • Compound CR777 of example 1 (1 pmol/L) • Compound CR777 of example 1 (10 pmol/L) • Compound CR777 of example 1 (100 pmol/L) • Compound CR777 of example 1 (1 nmol/L) • Compound CR777 of example 1 (10 nmol/L) • Compound CR777 of example 1 (100 nmol/L) • Compound CR777 of example 1 (1 μmol/L) • Compound CR777 of example 1 (10 μmol/L) […]
Data were expressed in percentage of control conditions (no injury, no compound=100%). All values were expressed as mean+/−SEM (standard error mean) of the 6 wells with statistical analyses on the different conditions (ANOVA followed by Dunnett's test when allowed, using GraphPad Prism software).

SMILES: CC1=C(CO)C(=O)O[C@@H]([C@@H](C)[C@H]2CCC3C4C[C@H](SC[C@H](NC(=O)CC[C@@H](N)C(=O)O)C(=O)NCC(=O)O)[C@]5(O)[C@@H](O)C=CC(=O)[C@]5(C)C4CC[C@@]32C)C1 (some centres unmarked) [CR777]
- TH positive neuron survival (added 1 h before MPP+ (4 μM, 48 h), all concentrations 1 pmol/L to 10 μmol/L, more particularly 10 to 100 nmol/L): significantly protected neurons from death
- neuro-protective effect on MPP+ induced injuries (concentrations between 10 and 100 nmol/L, MPP+ 4 μM, 48 h): important and significantly neuro-protective effect
